# Earlier results, collected in PubChem BioAssay AID1259409 (Chemical Carcinogenesis Research Information System (CCRIS), 2018).
# System: rodent chemically induced tumor inhibition, incidence and multiplicity
# Test: CCRIS tumor inhibitor studies
# Details: for tumour outcome (control, treated, inhibition, significance): Dose [Inhibitor]: 0
structure (smiles),measurement,setting,value
C=CCSCC=C,"tumour outcome (control, treated, inhibition, significance)","Carcinogen: DIETHYLNITROSAMINE, 55-18-5, N-METHYL-N-NITROSOUREA, 684-93-5, N,N-DIBUTYLNITROSAMINE, 924-16-3, Carcinogen: DIETHYLNITROSAMINE, 55-18-5, N-METHYL-N-NITROSOUREA, 684-93-5, N,N-DIBUTYLNITROSAMINE, 924-16-3, 0.5% IN DIET BEGINNING POST CARCINOGEN TREATMENT AND CONTINUING TO WK 40 (STUDY DURATION: 40 WK), Route [Inhibitor]: ORAL, Species: RAT, Strain/Sex: F344/MALE, Target Tissue: Type of Lesion: LUNG: CARCINOMA, Dose [Carcinogen]: 100 MG/KG DIETHYLNITROSAMINE ONCE FOLLOWED BY 20 MG/KG N-METHYL-N-NITROSOUREA ON D 2, 5, 8 AND 11 THEN 0.05% N-N-DIBUTYL, Promoter: NONE USED","3/16 (19%), 0/18 (0%), 100%, not calculated"
same,"tumour outcome (control, treated, inhibition, significance)","Carcinogen: DIETHYLNITROSAMINE, 55-18-5, N-METHYL-N-NITROSOUREA, 684-93-5, N,N-DIBUTYLNITROSAMINE, 924-16-3, Carcinogen: DIETHYLNITROSAMINE, 55-18-5, N-METHYL-N-NITROSOUREA, 684-93-5, N,N-DIBUTYLNITROSAMINE, 924-16-3, 0.5% IN DIET BEGINNING POST CARCINOGEN TREATMENT AND CONTINUING TO WK 40 (STUDY DURATION: 40 WK), Route [Inhibitor]: ORAL, Species: RAT, Strain/Sex: F344/MALE, Target Tissue: Type of Lesion: THYROID: ADENOMA, Dose [Carcinogen]: 100 MG/KG DIETHYLNITROSAMINE ONCE FOLLOWED BY 20 MG/KG N-METHYL-N-NITROSOUREA ON D 2, 5, 8 AND 11 THEN 0.05% N-N-DIBUTYL, Promoter: NONE USED","8/16 (50%), 2/18 (11%), 78%, p<0.02"
same,"tumour outcome (control, treated, inhibition, significance)","Carcinogen: DIETHYLNITROSAMINE, 55-18-5, N-METHYL-N-NITROSOUREA, 684-93-5, N,N-DIBUTYLNITROSAMINE, 924-16-3, Carcinogen: DIETHYLNITROSAMINE, 55-18-5, N-METHYL-N-NITROSOUREA, 684-93-5, N,N-DIBUTYLNITROSAMINE, 924-16-3, 0.5% IN DIET BEGINNING POST CARCINOGEN TREATMENT AND CONTINUING TO WK 40 (STUDY DURATION: 40 WK), Route [Inhibitor]: ORAL, Species: RAT, Strain/Sex: F344/MALE, Target Tissue: Type of Lesion: THYROID: CARCINOMA, Dose [Carcinogen]: 100 MG/KG DIETHYLNITROSAMINE ONCE FOLLOWED BY 20 MG/KG N-METHYL-N-NITROSOUREA ON D 2, 5, 8 AND 11 THEN 0.05% N-N-DIBUTYL, Promoter: NONE USED","2/16 (13%), 0/18 (0%), 100%, not calculated"
same,"tumour outcome (control, treated, inhibition, significance)","Carcinogen: DIETHYLNITROSAMINE, 55-18-5, N-METHYL-N-NITROSOUREA, 684-93-5, N,N-DIBUTYLNITROSAMINE, 924-16-3, Carcinogen: DIETHYLNITROSAMINE, 55-18-5, N-METHYL-N-NITROSOUREA, 684-93-5, N,N-DIBUTYLNITROSAMINE, 924-16-3, 0.5% IN DIET BEGINNING POST CARCINOGEN TREATMENT AND CONTINUING TO WK 40 (STUDY DURATION: 40 WK), Route [Inhibitor]: ORAL, Species: RAT, Strain/Sex: F344/MALE, Target Tissue: Type of Lesion: URINARY BLADDER: CARCINOMA, Dose [Carcinogen]: 100 MG/KG DIETHYLNITROSAMINE ONCE FOLLOWED BY 20 MG/KG N-METHYL-N-NITROSOUREA ON D 2, 5, 8 AND 11 THEN 0.05% N-N-DIBUTYL, Promoter: NONE USED","1/16 (6%), 0/18 (0%), 100%, not calculated"
same,"tumour outcome (control, treated, inhibition, significance)","Carcinogen: DIETHYLNITROSAMINE, 55-18-5, N-METHYL-N-NITROSOUREA, 684-93-5 N,N-DIBUTYLNITROSAMINE, 924-16-3, Carcinogen: DIETHYLNITROSAMINE, 55-18-5, N-METHYL-N-NITROSOUREA, 684-93-5 N,N-DIBUTYLNITROSAMINE, 924-16-3, 0.5% IN DIET BEGINNING POST CARCINOGEN TREATMENT AND CONTINUING TO WK 40 (STUDY DURATION: 40 WK), Route [Inhibitor]: ORAL, Species: RAT, Strain/Sex: F344/MALE, Target Tissue: Type of Lesion: URINARY BLADDER: PAPILLOMA, Dose [Carcinogen]: 100 MG/KG DIETHYLNITROSAMINE ONCE FOLLOWED BY 20 MG/KG N-METHYL-N-NITROSOUREA ON D 2, 5, 8 AND 11 THEN 0.05% N-N-DIBUTYL, Promoter: NONE USED","4/16 (25%), 2/18 (11%), 56%, not calculated"
same,"tumour outcome (control, treated, inhibition, significance)","Carcinogen: DIETHYLNITROSAMINE, 55-18-5, N-METHYL-NITROSOUREA, 684-93-5, N,N'-DIMETHYLHYDRAZINE, 540-73-8, N-BUTYL-N-(4-HYDROX, Carcinogen: DIETHYLNITROSAMINE, 55-18-5, N-METHYL-NITROSOUREA, 684-93-5, N,N'-DIMETHYLHYDRAZINE, 540-73-8, N-BUTYL-N-(4-HYDROX, 200 MG/KG BW IN CORN OIL 3/WK FOR 6 WK BEGINNING POST CARCINOGEN TREATMENT (STUDY DURATION: 28 WK), Route [Inhibitor]: GAVAGE, Species: RAT, Strain/Sex: F344/MALE, Target Tissue: Type of Lesion: KIDNEY: NEPHROBLASTOMA, Dose [Carcinogen]: 100 MG/KG BW DEN ONCE, 20 MG/KG BW MNU ONCE ON D 2, 5, 8 AND 11, 40 MG/KG BW DMH ON D 14, 17, 20 AND 23, 0.05% BHBN I, Dose [Carcinogen]: 100 MG/KG BW DEN ONCE, 20 MG/KG BW MNU ONCE ON D 2, 5, 8 AND 11, 40 MG/KG BW DMH ON D 14, 17, 20 AND 23, 0.05% BHBN I, Promoter: NONE USED","5/20 (25%), 8/19 (42%), -68%, not calculated"
same,"tumour outcome (control, treated, inhibition, significance)","Carcinogen: DIETHYLNITROSAMINE, 55-18-5, N-METHYL-NITROSOUREA, 684-93-5, N,N'-DIMETHYLHYDRAZINE, 540-73-8, N-BUTYL-N-(4-HYDROX, Carcinogen: DIETHYLNITROSAMINE, 55-18-5, N-METHYL-NITROSOUREA, 684-93-5, N,N'-DIMETHYLHYDRAZINE, 540-73-8, N-BUTYL-N-(4-HYDROX, 200 MG/KG BW IN CORN OIL 3/WK FOR 6 WK BEGINNING POST CARCINOGEN TREATMENT (STUDY DURATION: 28 WK), Route [Inhibitor]: GAVAGE, Species: RAT, Strain/Sex: F344/MALE, Target Tissue: Type of Lesion: KIDNEY: RENAL CELL CARCINOMA, Dose [Carcinogen]: 100 MG/KG BW DEN ONCE, 20 MG/KG BW MNU ONCE ON D 2, 5, 8 AND 11, 40 MG/KG BW DMH ON D 14, 17, 20 AND 23, 0.05% BHBN I, Dose [Carcinogen]: 100 MG/KG BW DEN ONCE, 20 MG/KG BW MNU ONCE ON D 2, 5, 8 AND 11, 40 MG/KG BW DMH ON D 14, 17, 20 AND 23, 0.05% BHBN I, Promoter: NONE USED","1/20 (5%), 0/19 (0%), 100%, not calculated"
same,"tumour outcome (control, treated, inhibition, significance)","Carcinogen: N-NITROSOMETHYLBENZYLAMINE, 937-40-6, 10 MG/KG IN CORN OIL 1/WK FOR 5 WK BEGINNING 3 HR PRIOR TO CARCINOGEN TREATMENT (STUDY DURATION: 15 WK), Route [Inhibitor]: GAVAGE, Species: RAT, Strain/Sex: SPRAGUE-DAWLEY/MALE, Target Tissue: Type of Lesion: ESOPHAGUS: TUMOR, Dose [Carcinogen]: 3 MG/KG 1/WK FOR 5 WK, Promoter: NONE USED","96%, 90%, 6%, not significant"
same,"tumour outcome (control, treated, inhibition, significance)","Carcinogen: N-NITROSOMETHYLBENZYLAMINE, 937-40-6, 100 MG/KG IN CORN OIL 1/WK FOR 5 WK BEGINNING 3 HR PRIOR TO CARCINOGEN TREATMENT (STUDY DURATION: 15 WK), Route [Inhibitor]: GAVAGE, Species: RAT, Strain/Sex: SPRAGUE-DAWLEY/MALE, Target Tissue: Type of Lesion: ESOPHAGUS: TUMOR, Dose [Carcinogen]: 3 MG/KG 1/WK FOR 5 WK, Promoter: NONE USED","96%, 63%, 34%, p<0.05"
same,"tumour outcome (control, treated, inhibition, significance)","Carcinogen: N-NITROSOMETHYLBENZYLAMINE, 937-40-6, 200 MG/KG IN CORN OIL 1/WK FOR 5 WK BEGINNING POST CARCINOGEN TREATMENT (STUDY DURATION: 15 WK), Route [Inhibitor]: GAVAGE, Species: RAT, Strain/Sex: SPRAGUE-DAWLEY/MALE, Target Tissue: Type of Lesion: ESOPHAGUS: TUMOR, Dose [Carcinogen]: 3 MG/KG 1/WK FOR 5 WK, Promoter: NONE USED","96%, 96%, 0%, not significant"
same,outcome,"Carcinogen: N-NITROSOMETHYLBENZYLAMINE, 937-40-6, Dose [Inhibitor]: 200 MG/KG BW IN CORN OIL 1/WK FOR 5 WK BEGINNING 3 HR PRIOR TO EACH CARCINOGEN DOSE (STUDY DURATION: 15 WK), Route [Inhibitor]: GAVAGE, Species: RAT, Strain/Sex: SPRAGUE-DAWLEY/MALE, Target Tissue: Type of Lesion: ESOPHAGUS: TUMOR, Dose [Carcinogen]: 3.5 MG/KG BW 1/WK FOR 5 WK, Promoter: NONE USED","79%, 0, 100%, p<0.001"
same,"tumour outcome (control, treated, inhibition, significance)","Carcinogen: VINYL CARBAMATE, 15805-73-9, 8 UMOL IN 0.1 MOLAR STERILIZED POTASSIUM BUFFER ONCE 10 MIN PRIOR TO CARCINOGEN DOSE (STUDY DURATION: 22 WK), Route [Inhibitor]: GAVAGE, Species: MOUSE, Strain/Sex: ICR/FEMALE, Target Tissue: Type of Lesion: SKIN: PAPILLOMA, Dose [Carcinogen]: 5.8 UMOL IN 0.2 ML ACETONE ONCE, Promoter: 12-O-TETRADECANOYLPHORBOL 13-ACETATE, 16561-29-8","70%, 57%, 19%, not significant"
same,"tumour outcome (control, treated, inhibition, significance)","Carcinogen: VINYL CARBAMATE, 15805-73-9, 200 MG/KG BW ONCE AT 2 HR AND 1 D PRIOR TO CARCINOGEN DOSE (STUDY DURATION: 22 WK), Route [Inhibitor]: GAVAGE, Species: MOUSE, Strain/Sex: CD-1/FEMALE, Target Tissue: Type of Lesion: SKIN: PAPILLOMA, Dose [Carcinogen]: 11.5 UMOL IN 0.2 ML ACETONE ONCE, Promoter: 12-O-TETRADECANOYLPHORBOL-13-ACETATE, 16561-29-8","58%, 29%, 50%, not calculated"
